Source: the NIST ThermoML archive (doi:10.1021/je800316b)

Conditions: Liquid

CCOS(=O)(=O)[O-].CCn1cc[n+](C)c1 [1-ethyl-3-methylimidazolium ethyl sulfate]
mass density [kg/m3]
Conditions | 100 kPa | 2500 kPa | 5000 kPa | 7500 kPa | 10000 kPa | 15000 kPa | 20000 kPa | 25000 kPa | 30000 kPa | 35000 kPa
293.15 K | 1246.9 | 1249 | 1250.2 | 1251.3 | 1252.3 | 1254.3 | 1256.5 | 1258.5 | 1260.5 | 1262.4
298.15 K | 1244.3 | 1245.2 | 1246.3 | 1247.4 | 1248.4 | 1250.6 | 1252.7 | 1254.8 | 1256.6 | 1258.7
303.15 K | 1240.8 | 1241.6 | 1242.7 | 1243.8 | 1244.9 | 1247 | 1249.1 | 1251.1 | 1253.2 | 1255.2
313.15 K | 1233.1 | 1234 | 1235.1 | 1236.2 | 1237.3 | 1239.5 | 1241.6 | 1243.7 | 1245.8 | 1247.9
333.15 K | 1218.3 | 1219.2 | 1220.4 | 1221.6 | 1222.7 | 1225 | 1227.2 | 1229.3 | 1231.5 | 1233.6
353.15 K | 1204.2 | 1205.3 | 1206.6 | 1207.8 | 1209 | 1211.4 | 1213.8 | 1216.1 | 1218.4 | 1220.6
373.15 K | 1190.1 | 1191.3 | 1192.6 | 1193.9 | 1195.2 | 1197.7 | 1200.2 | 1202.6 | 1204.9 | 1207.3
393.15 K | 1176.6 | 1178 | 1179.3 | 1180.7 | 1182 | 1184.6 | 1187.2 | 1189.7 | 1192.2 | 1194.6

CCn1cc[n+](C)c1.COS(=O)(=O)[O-] [1-ethyl-3-methylimidazolium methylsulfate]
mass density [kg/m3]
Conditions | 100 kPa | 2500 kPa | 5000 kPa | 7500 kPa | 10000 kPa | 15000 kPa | 20000 kPa | 25000 kPa | 30000 kPa | 35000 kPa
293.15 K | 1292.1 | 1293 | 1294 | 1295 | 1296 | 1298 | 1299.9 | 1301.8 | 1303.7 | 1305.6
298.15 K | 1288 | 1289.1 | 1290.1 | 1291.1 | 1292.1 | 1294.1 | 1296.1 | 1298 | 1300 | 1301.9
303.15 K | 1283.3 | 1284.3 | 1285.4 | 1286.4 | 1287.4 | 1289.5 | 1291.4 | 1293.4 | 1295.3 | 1297.3
313.15 K | 1276.6 | 1277.8 | 1278.9 | 1279.9 | 1281 | 1283 | 1285.1 | 1287.1 | 1289.1 | 1291.1
333.15 K | 1260.9 | 1262.3 | 1263.4 | 1264.5 | 1265.6 | 1267.8 | 1269.9 | 1272 | 1274 | 1276.1
353.15 K | 1245.5 | 1247.5 | 1248.7 | 1249.9 | 1251.1 | 1253.4 | 1255.6 | 1257.8 | 1260 | 1262.2
373.15 K | 1231.4 | 1232.8 | 1234 | 1235.2 | 1236.4 | 1238.8 | 1241.2 | 1243.5 | 1245.7 | 1248
393.15 K | 1218.1 | 1219.2 | 1220.5 | 1221.8 | 1223.1 | 1225.5 | 1227.9 | 1230.3 | 1232.6 | 1234.9

CCCCCCCCCCn1cc[n+](C)c1.O=S(=O)([N-]S(=O)(=O)C(F)(F)F)C(F)(F)F
mass density [kg/m3]
Conditions | 100 kPa | 2500 kPa | 5000 kPa | 7500 kPa | 10000 kPa | 15000 kPa | 20000 kPa | 25000 kPa | 30000 kPa | 35000 kPa
293.15 K | 1282.4 | 1285.6 | 1287.4 | 1289.3 | 1291.1 | 1294.6 | 1298.1 | 1301.4 | 1304.7 | 1308
298.15 K | 1278 | 1280.8 | 1282.7 | 1284.6 | 1286.4 | 1290 | 1293.5 | 1297 | 1300.3 | 1303.6
303.15 K | 1273.6 | 1276.4 | 1278.3 | 1280.3 | 1282.1 | 1285.8 | 1289.4 | 1292.9 | 1296.3 | 1299.6
313.15 K | 1265.3 | 1267.3 | 1269.3 | 1271.3 | 1273.2 | 1277 | 1280.7 | 1284.2 | 1287.7 | 1291.1
333.15 K | 1245.5 | 1247.7 | 1249.8 | 1251.9 | 1254 | 1258 | 1261.9 | 1265.7 | 1269.4 | 1273
353.15 K | 1228.6 | 1230.9 | 1233.2 | 1235.5 | 1237.6 | 1242 | 1246.2 | 1250.2 | 1254.1 | 1257.9
373.15 K | 1209.6 | 1212.4 | 1214.8 | 1217.3 | 1219.6 | 1224.2 | 1228.6 | 1232.9 | 1237 | 1241.1
393.15 K | 1191.8 | 1195.8 | 1198.3 | 1200.9 | 1203.4 | 1208.2 | 1212.8 | 1217.3 | 1221.7 | 1225.9

CCn1cc[n+](CC)c1.O=S(=O)([N-]S(=O)(=O)C(F)(F)F)C(F)(F)F [1,3-diethylimidazolium bis[(trifluoromethyl)sulfonyl]imide]
mass density [kg/m3]
Conditions | 100 kPa | 2500 kPa | 5000 kPa | 7500 kPa | 10000 kPa | 15000 kPa | 20000 kPa | 25000 kPa | 30000 kPa | 35000 kPa
293.15 K | 1469.2 | 1471.1 | 1473.1 | 1475 | 1476.9 | 1480.8 | 1484.2 | 1487.9 | 1491.5 | 1495.2
298.15 K | 1463.2 | 1465.5 | 1467.6 | 1469.5 | 1471.4 | 1475.3 | 1479 | 1482.5 | 1486.1 | 1489.5
303.15 K | 1457.7 | 1460.1 | 1462.1 | 1463.9 | 1466.1 | 1469.8 | 1473.6 | 1477.1 | 1480.9 | 1484.3
313.15 K | 1447.3 | 1449.6 | 1451.6 | 1453.7 | 1455.8 | 1459.7 | 1463.5 | 1467.2 | 1470.9 | 1474.6
333.15 K | 1425.7 | 1428.2 | 1430.4 | 1432.6 | 1434.8 | 1439.1 | 1443.2 | 1447.2 | 1450.9 | 1454.8
353.15 K | 1404.5 | 1407.5 | 1409.9 | 1412.2 | 1414.5 | 1419 | 1423.4 | 1427.5 | 1431.6 | 1435.6
373.15 K | 1384.1 | 1386.9 | 1389.5 | 1391.9 | 1394.4 | 1399.1 | 1403.7 | 1408.1 | 1412.4 | 1416.7
393.15 K | 1364.2 | 1367.2 | 1369.9 | 1372.5 | 1375.1 | 1380.2 | 1384.9 | 1389.6 | 1394.3 | 1398.6
